According to patent US20260256792A1, “TREATMENT OF CHRONIC SPONTANEOUS URTICARIA BY ADMINISTERING (R)-2-[3-[4-AMINO-3-(2-FLUORO-4-PHENOXY-PHENYL)PYRAZOLO[3,4-D]PYRIMIDIN-1-YL]PIPERIDINE-1-CARBONYL]-4-METHYL-4-[4-(OXETAN-3-YL)PIPERAZIN-1-YL]PENT-2-ENENITRILE” (priority 2023, published 2026):

System: moderate-to-severe chronic spontaneous urticaria (CSU)
Assay: Phase 2 CSU study: itch severity score over 7 days (ISS7)
Assay type: in vivo, human
Settings: for Non-responder n (%) (ISS7 reduction of 5 points or more) / OR for rilzabrutinib vs. placebo (ISS7 reduction of 5 points or more) / Responder n (%) (ISS7 reduction of 5 points or more) / Imputed non-responder n (%) (ISS7 reduction of 5 points or more) / RRD (%) for rilzabrutinib vs. placebo (ISS7 reduction of 5 points or more): Omalizumab-Naïve Population; for ISS7 Post-baseline Mean (SD): Omalizumab-Naïve, outlier removed
From the text: The study comprises a 12 week, randomized, double-blind, placebo-controlled, multi-center, dose-ranging efficacy and safety phase, followed by a 40 week open label extension (OLE) phase (see FIG. 1). The study consists of three phases and an optional OLE phase. […] Clinically, CSU is characterized by the spontaneous and recurrent appearance of pruritic hives. The proposed primary endpoints were the UAS7 at Week 12 in EU and EU reference countries and the ISS7 in the US. Regardless of where a participant was from, all assessments were the same. The UAS7 score is a composite score containing both the HSS7 and the ISS7. This allowed a global assessment of the two key components of urticaria: hives and itch. […] The UAS is a validated PRO measure. […] The daily UAS scores range from 0 to 6 point/day. […] Patients were to complete the UAS using the e-diary. […] The following secondary endpoints were to be analyzed using the same approach as for the primary endpoint: • Change from baseline in UAS7 at Week 4 • Change from baseline in UAS7 at Week 12 (for US and US reference countries) • Change from baseline in ISS7 at Week 12 (except US and US reference countries) • Change from baseline in HSS7 at Week 12

Structure (SMILES): CC(C)(C=C(C#N)C(=O)N1CCC[C@@H](n2nc(-c3ccc(Oc4ccccc4)cc3F)c3c(N)ncnc32)C1)N1CCN(C2COC2)CC1 [rilzabrutinib, (R)-2-[3-[4-amino-3-(2-fluoro-4-phenoxy-phenyl)pyrazolo[3,4-d]pyrimidin-1-yl]piperidine-1-carbonyl]-4-methyl-4-[4-(oxetan-3-yl)piperazin-1-yl]pent-2-enenitrile]
- Non-responder n (%) (ISS7 reduction of 5 points or more) (400 mg QPM, Week 10): 14 (37.8) n (%)
- OR for rilzabrutinib vs. placebo (ISS7 reduction of 5 points or more) (400 mg QPM, Week 10): 1.614
- Responder n (%) (ISS7 reduction of 5 points or more) (400 mg QPM, Week 10): 23 (62.2) n (%)
- Imputed non-responder n (%) (ISS7 reduction of 5 points or more) (400 mg QPM, Week 11): 7 (18.9) n (%)
- Non-responder n (%) (ISS7 reduction of 5 points or more) (400 mg QPM, Week 11): 17 (45.9) n (%)
- OR for rilzabrutinib vs. placebo (ISS7 reduction of 5 points or more) (400 mg QPM, Week 11): 0.932
- RRD (%) for rilzabrutinib vs. placebo (ISS7 reduction of 5 points or more) (400 mg QPM, Week 11): −1.7%
- Responder n (%) (ISS7 reduction of 5 points or more) (400 mg QPM, Week 11): 20 (54.1) n (%)
- Imputed non-responder n (%) (ISS7 reduction of 5 points or more) (400 mg QPM, Week 12): 10 (27.0) n (%)
- Non-responder n (%) (ISS7 reduction of 5 points or more) (400 mg QPM, Week 12): 21 (56.8) n (%)
- OR for rilzabrutinib vs. placebo (ISS7 reduction of 5 points or more) (400 mg QPM, Week 12): 0.851
- RRD (%) for rilzabrutinib vs. placebo (ISS7 reduction of 5 points or more) (400 mg QPM, Week 12): −4.2%
- Responder n (%) (ISS7 reduction of 5 points or more) (400 mg QPM, Week 12): 16 (43.2) n (%)
- Imputed non-responder n (%) (ISS7 reduction of 5 points or more) (400 mg TID, Week 1): 0 n (%)
- Non-responder n (%) (ISS7 reduction of 5 points or more) (400 mg TID, Week 1): 13 (37.1) n (%)
- OR for rilzabrutinib vs. placebo (ISS7 reduction of 5 points or more) (400 mg TID, Week 1): 5.851
- RRD (%) for rilzabrutinib vs. placebo (ISS7 reduction of 5 points or more) (400 mg TID, Week 1): 40.1%
- Responder n (%) (ISS7 reduction of 5 points or more) (400 mg TID, Week 1): 22 (62.9) n (%)
- Imputed non-responder n (%) (ISS7 reduction of 5 points or more) (400 mg TID, Week 2): 0 n (%)
- Non-responder n (%) (ISS7 reduction of 5 points or more) (400 mg TID, Week 2): 12 (34.3) n (%)
- OR for rilzabrutinib vs. placebo (ISS7 reduction of 5 points or more) (400 mg TID, Week 2): 4.876
- RRD (%) for rilzabrutinib vs. placebo (ISS7 reduction of 5 points or more) (400 mg TID, Week 2): 36.4%
- Responder n (%) (ISS7 reduction of 5 points or more) (400 mg TID, Week 2): 23 (65.7) n (%)
- Imputed non-responder n (%) (ISS7 reduction of 5 points or more) (400 mg TID, Week 3): 0 n (%)
- Non-responder n (%) (ISS7 reduction of 5 points or more) (400 mg TID, Week 3): 12 (34.3) n (%)
- OR for rilzabrutinib vs. placebo (ISS7 reduction of 5 points or more) (400 mg TID, Week 3): 3.637
- RRD (%) for rilzabrutinib vs. placebo (ISS7 reduction of 5 points or more) (400 mg TID, Week 3): 34.3%
- Responder n (%) (ISS7 reduction of 5 points or more) (400 mg TID, Week 3): 23 (65.7) n (%)
- Imputed non-responder n (%) (ISS7 reduction of 5 points or more) (400 mg TID, Week 4): 3 (8.6) n (%)
- Non-responder n (%) (ISS7 reduction of 5 points or more) (400 mg TID, Week 4): 11 (31.4) n (%)
- OR for rilzabrutinib vs. placebo (ISS7 reduction of 5 points or more) (400 mg TID, Week 4): 2.777
- RRD (%) for rilzabrutinib vs. placebo (ISS7 reduction of 5 points or more) (400 mg TID, Week 4): 25.1%
- Responder n (%) (ISS7 reduction of 5 points or more) (400 mg TID, Week 4): 24 (68.6) n (%)
- Imputed non-responder n (%) (ISS7 reduction of 5 points or more) (400 mg TID, Week 5): 2 (5.7) n (%)
- Non-responder n (%) (ISS7 reduction of 5 points or more) (400 mg TID, Week 5): 10 (28.6) n (%)
- OR for rilzabrutinib vs. placebo (ISS7 reduction of 5 points or more) (400 mg TID, Week 5): 2.535
- RRD (%) for rilzabrutinib vs. placebo (ISS7 reduction of 5 points or more) (400 mg TID, Week 5): 22.7%
- Responder n (%) (ISS7 reduction of 5 points or more) (400 mg TID, Week 5): 25 (71.4) n (%)
- Imputed non-responder n (%) (ISS7 reduction of 5 points or more) (400 mg TID, Week 6): 4 (11.4) n (%)
- Non-responder n (%) (ISS7 reduction of 5 points or more) (400 mg TID, Week 6): 15 (42.9) n (%)
- OR for rilzabrutinib vs. placebo (ISS7 reduction of 5 points or more) (400 mg TID, Week 6): 1.563
- Responder n (%) (ISS7 reduction of 5 points or more) (400 mg TID, Week 6): 20 (57.1) n (%)
- Imputed non-responder n (%) (ISS7 reduction of 5 points or more) (400 mg TID, Week 7): 5 (14.3) n (%)
- Non-responder n (%) (ISS7 reduction of 5 points or more) (400 mg TID, Week 7): 11 (31.4) n (%)
- OR for rilzabrutinib vs. placebo (ISS7 reduction of 5 points or more) (400 mg TID, Week 7): 2.715
- RRD (%) for rilzabrutinib vs. placebo (ISS7 reduction of 5 points or more) (400 mg TID, Week 7): 23.5%
- Responder n (%) (ISS7 reduction of 5 points or more) (400 mg TID, Week 7): 24 (68.6) n (%)
- Imputed non-responder n (%) (ISS7 reduction of 5 points or more) (400 mg TID, Week 8): 7 (20.0) n (%)
- Non-responder n (%) (ISS7 reduction of 5 points or more) (400 mg TID, Week 8): 12 (34.3) n (%)
- OR for rilzabrutinib vs. placebo (ISS7 reduction of 5 points or more) (400 mg TID, Week 8): 1.891
- RRD (%) for rilzabrutinib vs. placebo (ISS7 reduction of 5 points or more) (400 mg TID, Week 8): 16.1%
- Responder n (%) (ISS7 reduction of 5 points or more) (400 mg TID, Week 8): 23 (65.7) n (%)
- Imputed non-responder n (%) (ISS7 reduction of 5 points or more) (400 mg TID, Week 9): 6 (17.1) n (%)
- Non-responder n (%) (ISS7 reduction of 5 points or more) (400 mg TID, Week 9): 11 (31.4) n (%)
- OR for rilzabrutinib vs. placebo (ISS7 reduction of 5 points or more) (400 mg TID, Week 9): 2.956
- RRD (%) for rilzabrutinib vs. placebo (ISS7 reduction of 5 points or more) (400 mg TID, Week 9): 25.1%
- Responder n (%) (ISS7 reduction of 5 points or more) (400 mg TID, Week 9): 24 (68.6) n (%)
- Imputed non-responder n (%) (ISS7 reduction of 5 points or more) (400 mg TID, Week 10): 5 (14.3) n (%)
- Non-responder n (%) (ISS7 reduction of 5 points or more) (400 mg TID, Week 10): 12 (34.3) n (%)
- OR for rilzabrutinib vs. placebo (ISS7 reduction of 5 points or more) (400 mg TID, Week 10): 1.910
- RRD (%) for rilzabrutinib vs. placebo (ISS7 reduction of 5 points or more) (400 mg TID, Week 10): 15.5%
- Responder n (%) (ISS7 reduction of 5 points or more) (400 mg TID, Week 10): 23 (65.7) n (%)
- Imputed non-responder n (%) (ISS7 reduction of 5 points or more) (400 mg TID, Week 11): 4 (11.4) n (%)
- Non-responder n (%) (ISS7 reduction of 5 points or more) (400 mg TID, Week 11): 10 (28.6) n (%)
- OR for rilzabrutinib vs. placebo (ISS7 reduction of 5 points or more) (400 mg TID, Week 11): 1.951
- RRD (%) for rilzabrutinib vs. placebo (ISS7 reduction of 5 points or more) (400 mg TID, Week 11): 15.5%
- Responder n (%) (ISS7 reduction of 5 points or more) (400 mg TID, Week 11): 25 (71.4) n (%)
- Imputed non-responder n (%) (ISS7 reduction of 5 points or more) (400 mg TID, Week 12): 8 (22.9) n (%)
- Non-responder n (%) (ISS7 reduction of 5 points or more) (400 mg TID, Week 12): 15 (42.9) n (%)
- OR for rilzabrutinib vs. placebo (ISS7 reduction of 5 points or more) (400 mg TID, Week 12): 1.469
- Responder n (%) (ISS7 reduction of 5 points or more) (400 mg TID, Week 12): 20 (57.1) n (%)
- ISS7 Post-baseline Mean (SD) (400 mg BID, Week 2): 10.32 (5.64)
- ISS7 Post-baseline Mean (SD) (400 mg BID, Week 3): 9.16 (6.09)
- ISS7 Post-baseline Mean (SD) (400 mg BID, Week 4): 8.32 (6.02)
- ISS7 Post-baseline Mean (SD) (400 mg BID, Week 5): 8.88 (6.81)
- ISS7 Post-baseline Mean (SD) (400 mg BID, Week 6): 8.85 (6.40)
- ISS7 Post-baseline Mean (SD) (400 mg BID, Week 7): 8.21 (6.16)
- ISS7 Post-baseline Mean (SD) (400 mg BID, Week 8): 7.33 (6.55)
- ISS7 Post-baseline Mean (SD) (400 mg BID, Week 9): 7.63 (7.11)
- ISS7 Post-baseline Mean (SD) (400 mg BID, Week 10): 8.17 (7.29)
- ISS7 Post-baseline Mean (SD) (400 mg BID, Week 11): 7.93 (6.94)
- ISS7 Post-baseline Mean (SD) (400 mg BID, Week 12): 8.09 (6.95)
- ISS7 Post-baseline Mean (SD) (400 mg QPM, Week 1): 13.08 (4.52)
- ISS7 Post-baseline Mean (SD) (400 mg QPM, Week 3): 11.60 (4.68)
- ISS7 Post-baseline Mean (SD) (400 mg QPM, Week 4): 11.39 (4.79)
- ISS7 Post-baseline Mean (SD) (400 mg QPM, Week 5): 11.00 (4.68)
- ISS7 Post-baseline Mean (SD) (400 mg QPM, Week 6): 10.27 (5.26)
- ISS7 Post-baseline Mean (SD) (400 mg QPM, Week 7): 10.68 (5.34)
- ISS7 Post-baseline Mean (SD) (400 mg QPM, Week 8): 10.72 (5.26)
- ISS7 Post-baseline Mean (SD) (400 mg QPM, Week 10): 10.43 (5.30)
- ISS7 Post-baseline Mean (SD) (400 mg QPM, Week 11): 11.03 (5.55)
